Assay results taken from patent US4217357A, “Inhibition of thromboxane synthetase with 3-(imidazol-1-ylalkyl)indoles” (Pfizer Inc., priority 1978, dated 1980).

Assays:
Assay type in all cases: biochemical
[1] = target: T1, thromboxane synthetase (Homo sapiens, UniProt P24557); test: Thromboxane A2 (TxA2) synthetase in vitro enzyme assay; conditions: for IC50: indomethacin-pretreated human platelet microsomes, PGH2, 0° C., 2 min, 5 min pre-incubation, read-out: Concentration causing 50% inhibition of (1) thromboxane synthetase; for Ratio of (3) to (1): prostacyclin synthetase / thromboxane synthetase 50% inhibition concentrations
T1 construct: Indomethacin-pretreated human platelet microsomes; from tissue; host or cells: human platelet microsomes
T1 sequence (P24557 1-533): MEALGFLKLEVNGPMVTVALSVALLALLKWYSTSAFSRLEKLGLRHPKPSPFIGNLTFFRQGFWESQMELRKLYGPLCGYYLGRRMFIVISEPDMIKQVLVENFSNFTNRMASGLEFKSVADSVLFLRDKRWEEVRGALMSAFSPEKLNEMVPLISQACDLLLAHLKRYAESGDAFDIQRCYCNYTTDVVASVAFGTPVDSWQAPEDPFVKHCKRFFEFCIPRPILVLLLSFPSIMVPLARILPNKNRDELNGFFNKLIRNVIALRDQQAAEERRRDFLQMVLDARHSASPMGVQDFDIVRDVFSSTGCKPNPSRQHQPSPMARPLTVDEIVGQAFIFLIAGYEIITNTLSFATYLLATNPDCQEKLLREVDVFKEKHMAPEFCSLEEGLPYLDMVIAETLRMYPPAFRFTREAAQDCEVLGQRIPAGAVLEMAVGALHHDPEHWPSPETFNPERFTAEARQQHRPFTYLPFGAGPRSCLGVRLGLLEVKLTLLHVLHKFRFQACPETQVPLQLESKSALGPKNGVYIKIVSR
Procedure: Indomethacin-pretreated human platelet microsomes (Science, 1976, 193, 163) are incubated with PGH2 (produced as described in test No. 1) at 0° C. for a period of two minutes, and aliquots of the reaction mixture are then superfused over two rabbit aorta spirals which are separated by a delay coil (2 min.). The latter is required in order to allow for the selective decay of the more unstable thromboxane A2 (Proc. Nat. Acad. Sci., 1975, 72, 2994), thereby enabling separate measurement of the increased isometric tension due to the TxA2 formed and the PGH2 remaining to take place. The test compound is then pre-incubated with the enzyme for a period of five minutes, and its ability to inhibit the thromboxane synthetase enzyme is measured as its reduction of the TxA2 component of the isometric tension.

[2] = target: T2, prostacyclin synthetase (Sus scrofa, UniProt A0A5G2QT35); test: Prostacyclin (PGI2) synthetase in vitro enzyme assay; conditions: pig aorta microsomes, PGH2, 22° C., 30 seconds; 5 min pre-incubation; read-out: Concentration causing 50% inhibition of (3) prostacyclin synthetase
T2 construct: Pig aorta microsomes; from tissue; host or cells: pig aorta microsomes
T2 sequence (A0A5G2QT35 1-497): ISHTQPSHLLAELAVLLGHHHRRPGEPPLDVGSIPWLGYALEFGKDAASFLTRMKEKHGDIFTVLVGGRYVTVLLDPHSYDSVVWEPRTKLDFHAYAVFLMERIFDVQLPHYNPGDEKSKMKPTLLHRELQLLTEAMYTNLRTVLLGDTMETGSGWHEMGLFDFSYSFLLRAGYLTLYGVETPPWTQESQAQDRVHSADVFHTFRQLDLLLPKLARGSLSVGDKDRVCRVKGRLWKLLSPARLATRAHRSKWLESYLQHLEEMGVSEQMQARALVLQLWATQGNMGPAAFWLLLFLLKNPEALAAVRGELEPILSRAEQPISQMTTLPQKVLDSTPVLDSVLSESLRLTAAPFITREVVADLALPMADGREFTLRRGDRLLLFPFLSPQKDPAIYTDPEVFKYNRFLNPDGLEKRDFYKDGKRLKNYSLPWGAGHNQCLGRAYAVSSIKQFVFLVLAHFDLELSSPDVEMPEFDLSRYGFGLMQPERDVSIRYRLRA

[3] = target: T3, cyclo-oxygenase (Ovis aries, UniProt P05979); test: Cyclo-oxygenase in vitro enzyme assay; conditions: ram seminal vesicle microsomes, arachidonic acid 100 μM, 22° C., 1 min; 5 min pre-incubation; read-out: Concentration causing 50% inhibition of (2) cyclo-oxygenase
T3 construct: Ram seminal vesicle microsomes; from tissue; host or cells: ram seminal vesicle microsomes
T3 sequence (P05979 25-600): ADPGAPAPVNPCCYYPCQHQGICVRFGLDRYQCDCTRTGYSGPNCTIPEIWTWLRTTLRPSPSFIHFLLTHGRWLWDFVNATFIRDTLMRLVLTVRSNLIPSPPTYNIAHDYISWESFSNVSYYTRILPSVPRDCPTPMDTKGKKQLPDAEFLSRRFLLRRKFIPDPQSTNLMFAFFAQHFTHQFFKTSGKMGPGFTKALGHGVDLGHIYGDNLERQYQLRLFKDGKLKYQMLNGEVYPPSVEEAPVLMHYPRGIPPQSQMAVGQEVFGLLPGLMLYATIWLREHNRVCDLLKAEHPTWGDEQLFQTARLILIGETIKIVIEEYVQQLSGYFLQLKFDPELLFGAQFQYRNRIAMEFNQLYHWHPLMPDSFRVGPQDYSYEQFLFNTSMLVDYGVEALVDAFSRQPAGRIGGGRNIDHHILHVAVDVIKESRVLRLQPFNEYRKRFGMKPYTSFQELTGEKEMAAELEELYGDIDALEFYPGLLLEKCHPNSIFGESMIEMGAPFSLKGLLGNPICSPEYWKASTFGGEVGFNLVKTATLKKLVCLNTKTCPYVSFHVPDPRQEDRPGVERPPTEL
Procedure: The effect of the compounds of the formula (I) on the thromboxane synthetase enzyme, and the prostacyclin synthetase and cyclo-oxygenase enzymes has been measured by the following in vitro enzyme assay tests:
Ram seminal vesicle microsomes (Biochemistry, 1971, 10, 2372) are incubated with arachidonic acid (100 μM) at 22° C. for a period of one minute so as to produce PGH2, and aliquots of this reaction mixture are then injected into a stream of Krebs-bicarbonate at 37° C. [containing a mixture of antagonists (Nature, […], 218, 1135) and indomethacin (Brit. J. Pharmacol., 1972, 45, 451)] which is superfusing a spirally-cut rabbit aorta strip (Nature, 1969, 223, 29). The ability of a compound to inhibit the enzyme is measured by comparing the increases in isometric tension produced by PGH2 in the absence of the test compound and again, following pre-incubation of the enzyme with the test compound for a period of five minutes.

SMILES | IC50 [1] [nM] | Ratio of (3) to (1) [1] | IC50 [2] [nM] | IC50 [3] [nM]
c1ccc2c(Cn3ccnc3)c(C34CC5CC(CC(C5)C3)C4)[nH]c2c1 [XIV] | 2.5 | 400 | 1000 | –
COc1ccc(-c2[nH]c3ccccc3c2Cn2ccnc2)cc1 [XIX, 2-(p-anisyl)-3-(imidazol-1-ylmethyl)indole] | 120 | – | – | –
O=C(c1ccccc1)n1cc(Cn2ccnc2)c2ccccc21 [Example XL, 1-benzoyl-3-(imidazol-1-ylmethyl)indole] | 2 | 850 | 1700 | > 100000
c1ccc(-c2[nH]c3ccccc3c2Cn2ccnc2)cc1 [III, 3-(imidazol-1-ylmethyl)-2-phenylindole] | 10 | 1,200 | 12000 | > 100000
O=C(C1CC1)n1cc(Cn2ccnc2)c2ccccc21 [XLI, 1-cyclopropylcarbonyl-3-(imidazol-1-yl-methyl)indole] | 4.3 | – | – | –
Cc1ccc2[nH]cc(Cn3ccnc3)c2c1 [XI, 3-(imidazol-1-ylmethyl)-5-methylindole] | 58 | 600 | 35000 | –
O=C(c1cccc(C(F)(F)F)c1)n1cc(Cn2ccnc2)c2ccccc21 [Example XLV, 3-(imidazol-1-ylmethyl)-1-(m-trifluoromethylbenzoyl)indole] | 100 | – | – | –
c1ccc(COc2ccc3[nH]cc(Cn4ccnc4)c3c2)cc1 [Example XXV, 5-benzyloxy-3-(imidazol-1-ylmethyl)indole] | 260 | 140 | 37000 | –
Oc1ccc2[nH]cc(Cn3ccnc3)c2c1 [Example XLVII, 5-hydroxy-3-(imidazol-1-ylmethyl)-indole] | 2.3 | 3,500 | 8000 | –
CC(C)(C)c1[nH]c2ccccc2c1Cn1ccnc1 [Example VI, 3-(imidazol-1-ylmethyl)-2-tert-butylindole] | – | – | – | > 100000
CC(c1c[nH]c2ccccc12)n1ccnc1 (stereo not drawn) [Example VII, 3-[α-(imidazol-1-yl)ethyl]indole] | 30 | 3,300 | > 100000 | –
CC(=O)n1cc(Cn2ccnc2)c2ccccc21 [Example XLVI, 1-acetyl-3-(imidazol-1-ylmethyl)indole] | 1.2 | 57,000 | 68000 | –

Continued, values first:

IC50 [1] [nM] | Ratio of (3) to (1) [1] | IC50 [2] [nM] | IC50 [3] [nM] | SMILES
0.058 | > 1.7×10^6 | > 100000 | – | C=CCn1cc(Cn2ccnc2)c2ccccc21 [XXXI, 1-allyl-3-(imidazol-1-ylmethyl)indole]
26 | > 3,800 | > 100000 | – | CN(C)CCn1cc(Cn2ccnc2)c2ccccc21 [XXXVIII, 1-(β-dimethylaminoethyl)-3-(imidazol-1-ylmethyl)indole]
45 | > 2,200 | > 100000 | – | COCCn1cc(Cn2ccnc2)c2ccccc21 [XXXVII, 3-(imidazol-1-ylmethyl)-1-(β-methoxyethyl)indole]
110 | > 900 | > 100000 | – | Clc1ccc(-c2[nH]c3ccccc3c2Cn2ccnc2)cc1 [XXI]
64 | > 1,500 | > 100000 | – | CN(C)c1ccc2[nH]cc(Cn3ccnc3)c2c1 [XXIII, 5-dimethylamino-3-(imidazol-1-ylmethyl)indole]
4 | > 2,500 | > 100000 | – | CCCn1cc(Cn2ccnc2)c2ccccc21 [XXX, 3-(imidazol-1-ylmethyl)-1-(n-propyl)indole]
0.38 | 3,700 | 1400 | – | COc1ccccc1-c1[nH]c2ccccc2c1Cn1ccnc1 [XVIII, 2-(o-anisyl)-3-(imidazol-1-ylmethyl)indole]
0.41 | 49,000 | 20000 | – | Cc1ccc(C(=O)n2cc(Cn3ccnc3)c3ccccc32)cc1 [XLII, 3-(imidazol-1-ylmethyl)-1-(p-methylbenzoyl)indole]
11 | 9,000 | 100000 | – | c1ccc2c(c1)c(Cn1ccnc1)cn2CC1CC1 [XXXVI, 1-cyclopropylmethyl-3-(imidazol-1-ylmethyl)indole]
1 | > 10^5 | > 100000 | – | c1ccc(Cc2[nH]c3ccccc3c2Cn2ccnc2)cc1 [XXII, 2-benzyl-3-(imidazol-1-ylmethyl)indole]
33 | – | – | – | CC(c1cn(C)c2ccccc12)n1ccnc1 (stereo not drawn) [XXVIII, 3-[α-(imidazol-1-yl)ethyl]-1-methylindole]
36 | – | – | – | C=CCn1cc(C(C)n2ccnc2)c2ccccc21 (stereo not drawn) [XXXII, 1-allyl-3-[α-(imidazol-1-yl)ethyl]indole]
1.4 | > 70,000 | > 100000 | – | CCn1cc(Cn2ccnc2)c2ccccc21 [XXIX, 1-ethyl-3-(imidazol-1-ylmethyl)indole]
1.7 | > 60,000 | > 100000 | – | COc1ccc(C(=O)n2cc(Cn3ccnc3)c3ccccc32)cc1 [XLIII, 3-(imidazol-1-ylmethyl)-1-(p-methoxybenzoyl)indole]
3.3 | 300 | 1000 | – | C=C(C)Cn1cc(Cn2ccnc2)c2ccccc21 [XXXV, 3-(imidazol-1-yl-methyl)-1-methallylindole]
86 | 210 | 18000 | – | Clc1ccc(Cn2cc(Cn3ccnc3)c3ccccc32)cc1 [XXXIX, 1-(p-chlorobenzyl)-3-(imidazol-1-ylmethyl)indole]
200 | 500 | 100000 | – | FC(F)(F)c1ccc2c(Cn3ccnc3)c[nH]c2c1 [XXIV, 3-(imidazol-1-ylmethyl)-6-trifluoromethylindole]
0.014 | 10^6 | 14000 | – | Cc1ccccc1-c1[nH]c2ccccc2c1Cn1ccnc1 [XV, 3-(imidazol-1-ylmethyl)-2-(o-tolyl)indole]
